Experimental findings from ChEMBL document CHEMBL4043087 (J Med Chem, 2017) are described below.

The structures appear in SMILES notation. A value given as a limit tells only on which side of the number the result lay.

Data set [1] concerns Mus musculus. Briefly: Anesthetic activity in mouse model assessed as loss of righting reflex. Type of data set: functional.
Data set [2] in a line: Therapeutic index, ratio of LD50 for toxicity in Sprague-Dawley rat to ED50 for anesthetic effect in Sprague-Dawley rat. The following applies: read-out: Ratio LD50/ED50.
Data set [3] can be described thus: Toxicity in mouse. Type of data set: organism-based. To be noted: in vivo.
Data set [4] relates to Sus scrofa. Nature of the data set: Anesthetic activity in mini pig assessed as recovery time at 22.5 mg/kg, administered as bolus dose. Type of data set: functional.
Data set [5] can be described thus: Toxicity in Sprague-Dawley rat. To be noted: in vivo.
The test system of data set [6] is Sus scrofa. Nature of the data set: Anesthetic activity in mini pig assessed as anesthetic duration time at 22.5 mg/kg, administered as bolus dose. It counts as functional.
The test system of data set [7] is Rattus norvegicus. Briefly: Anesthetic activity in Sprague-Dawley rat assessed as loss of righting reflex. Type of data set: functional.
Data set [8] concerns Canis familiaris. Briefly: Anesthetic activity in Beagle dog assessed as anesthetic duration time at 75 mg/kg, administered as bolus dose. Type of data set: functional, Canis lupus familiaris.
Data set [9] has as its system Sus scrofa. Nature of the data set: Anesthetic activity in mini pig assessed as onset time for loss of righting reflex at 22.5 mg/kg, administered as bolus dose. It counts as functional.
Data set [10] has as its system Canis familiaris. Nature of the data set: Anesthetic activity in Beagle dog assessed as onset time for loss of righting reflex at 75 mg/kg, administered as bolus dose. It counts as functional, Canis lupus familiaris.
For data set [11], the system named is Canis familiaris. Nature of the data set: Anesthetic activity in Beagle dog assessed as recovery time at 75 mg/kg, administered as bolus dose. It counts as functional, Canis lupus familiaris.
Data set [12] is described as follows: Therapeutic index, ratio of LD50 for toxicity in mouse to ED50 for anesthetic effect in mouse.
For data set [13], the system named is Mus musculus. Nature of the data set: Anesthetic activity in iv dosed ICR mouse assessed as anesthetic duration time administered 7 to 8 doses at 10 secs for each dose. Type of data set: functional.
The subject of data set [14] is Rattus norvegicus. Nature of the data set: Half life in Sprague-Dawley rat at 1 mg/kg, iv by LC-MS/MS analysis. Type of data set: ADME, organism-based. The following applies: in vivo.
Data set [15] deals with Mus musculus. Briefly: Anesthetic activity in iv dosed ICR mouse assessed as onset time for loss of righting reflex administered 7 to 8 doses at 10 secs for each dose. It counts as functional.
Data set [16] is filed under the species Rattus norvegicus. Nature of the data set: Displacement of [35S]TBPS from GABAA receptor in Wistar rat cerebral cortex membranes at 1 uM after 3 hrs by scintillation counting method. To be noted: Membrane. (In general: Loss of bound radioactivity is the signal in a displacement assay; it reports binding, not function.)
For data set [17], the system named is Rattus norvegicus. Nature of the data set: Cmax in Sprague-Dawley rat at 1 mg/kg, iv by LC-MS/MS analysis. Type of data set: ADME, organism-based. Set-up: dose 1 mg/kg, route intravenous. To be noted: in vivo.
The subject of data set [18] is Mus musculus. Nature of the data set: Anesthetic activity in iv dosed ICR mouse assessed as recovery time of righting reflex by measuring the ability to grip and climb a steel frame and ambulated normally administered 7 to 8 doses at 10 secs for each dose. It counts as functional.
For data set [19], the species on record is Rattus norvegicus. Nature of the data set: Displacement of [35S]TBPS from GABAA receptor in Wistar rat cerebral cortex membranes after 3 hrs by scintillation counting method. To be noted: Membrane.
Data set [20] is filed under the species Rattus norvegicus. To be noted: in vivo, iv, 1 mg/kg.
Data set [21] is filed under the species Rattus norvegicus. Nature of the data set: Displacement of [35S]TBPS from GABAA receptor in Wistar rat cerebral cortex membranes at 10 uM after 3 hrs by scintillation counting method. To be noted: Membrane.
Data set [22] relates to Mus musculus. Nature of the data set: Anesthetic activity in iv dosed ICR mouse assessed as dose required to produce 10 min of anesthesia administered 7 to 8 doses at 10 secs for each dose. Type of data set: functional.
Data set [23] can be described thus: Volume of distribution at steady state in Sprague-Dawley rat at 1 mg/kg, iv by LC-MS/MS analysis. Type of data set: ADME, organism-based. The following applies: in vivo, read-out: Vdss.
The nature of data set [24]: Clearance in Sprague-Dawley rat at 1 mg/kg, iv by LC-MS/MS analysis. The following applies: in vivo. It counts as ADME, organism-based.
Data set [25] deals with Sus scrofa. Briefly: Anesthetic activity in mini pig assessed as anesthetic duration time at 5 mg/kg, administered as bolus dose. Type of data set: functional.
For data set [26], the system named is Canis familiaris. Nature of the data set: Anesthetic activity in Beagle dog assessed as onset time for loss of righting reflex at 25 mg/kg, administered as bolus dose. Type of data set: functional, Canis lupus familiaris.
The test system of data set [27] is Sus scrofa. Nature of the data set: Anesthetic activity in mini pig assessed as onset time for loss of righting reflex at 5 mg/kg, administered as bolus dose. Type of data set: functional.
Data set [28] relates to Sus scrofa. Briefly: Anesthetic activity in mini pig assessed as recovery time at 5 mg/kg, administered as bolus dose. It counts as functional.
Data set [29] deals with Canis familiaris. Briefly: Anesthetic activity in Beagle dog assessed as recovery time at 25 mg/kg, administered as bolus dose. It counts as functional, Canis lupus familiaris.
In data set [30] the test system is Canis familiaris. Nature of the data set: Anesthetic activity in Beagle dog assessed as anesthetic duration time at 25 mg/kg, administered as bolus dose. Type of data set: functional, Canis lupus familiaris.
Data set [31] is described as follows: Toxicity in iv dosed ICR mouse administered 7 to 8 doses at 10 secs for each dose. It counts as organism-based. To be noted: in vivo.
Data set [32] has as its system Mus musculus. Briefly: Anesthetic activity in iv dosed ICR mouse assessed as loss of righting reflex administered 7 to 8 doses at 10 secs for each dose. Type of data set: functional.
For data set [33], the system named is Sus scrofa. Nature of the data set: Anesthetic activity in mini pig assessed as onset time for loss of righting reflex at 4 mg/kg, administered as bolus dose. Type of data set: functional.
Data set [34] concerns Canis familiaris. Nature of the data set: Anesthetic activity in Beagle dog assessed as onset time for loss of righting reflex at 12.5 mg/kg, administered as bolus dose. It counts as functional, Canis lupus familiaris.
Data set [35] concerns Sus scrofa. Nature of the data set: Anesthetic activity in mini pig assessed as recovery time at 4 mg/kg, administered as bolus dose. It counts as functional.
The subject of data set [36] is Sus scrofa. Briefly: Anesthetic activity in mini pig assessed as anesthetic duration time at 4 mg/kg, administered as bolus dose. Type of data set: functional.
For data set [37], the system named is Canis familiaris. Briefly: Anesthetic activity in Beagle dog assessed as recovery time at 12.5 mg/kg, administered as bolus dose. It counts as functional, Canis lupus familiaris.
For data set [38], the system named is Canis familiaris. Nature of the data set: Anesthetic activity in Beagle dog assessed as anesthetic duration time at 12.5 mg/kg, administered as bolus dose. Type of data set: functional, Canis lupus familiaris.

Regarding `CC(C)c1cccc(C(C)C)c1OCOP(=O)([O-])[O-].[Na+].[Na+]` [FOSPROPOFOL DISODIUM], the 50% effective dose (ED50) (commonly the dose that gives a 50% effect, or the effect in half of the subjects) in data set [1] is 95 mg/kg; in data set [7], 41 mg/kg. Further, the selectivity ratio in [2] worked out at 4.61. In addition, the LD50 (commonly the dose expected to kill half of the subjects tested) in data set [3] stood at 220 mg/kg; in data set [5], 189 mg/kg. Besides, the Time in data set [4] stood at 6 min; in data set [6], 72.6 min; in [8], 80.4 min; in data set [9], 1.6 min; in [10], 2.1 min; in [11], 7.3 min. Moreover, the “Ratio LD50/ED50” value in data set [12] turned out to be 2.3.

With `CC(C)c1cccc([C@H](C)C2CC2)c1O` [CIPEPOFOL], the Time in data set [13] is 313.43 s; in data set [15] it was 21.86 s; in data set [18], 64.8 s. In addition, in [14], the t1/2 is on record as 28 min. Moreover, the inhibition (usually the drop in the measured response relative to a control, in per cent) in data set [16] was 34%; in data set [19] it was “Dose-dependent effect”; in data set [21] it was 85%. Moreover, the maximum concentration (Cmax) (commonly the maximum level reached in the sampled fluid or tissue) in data set [17] was 834 ng/mL. For the same compound, in data set [20], the AUCt came out at 164 ng·h/mL. Also, the Activity in [22] was determined as 4.8 mg/kg. The Vd in [23] stood at 2.02 L/kg. In data set [24], the clearance (as a rule, a measure of how efficiently the substance is removed, as volume per time) is 100 mL/min/kg.

Consider `CC(C)c1cccc([C@H](C)C2CC2)c1OCOP(=O)([O-])[O-].[Na+].[Na+]`, for which the ED50 was determined as 20.4 mg/kg in [1] and 12.9 mg/kg in [7]. Also, the selectivity ratio in data set [2] was 4.74. The compound also showed an LD50 in [3] of 86.5 mg/kg. Besides, the Time in data set [25] came to 68.2 min; in data set [26] it was 0.7 min; in [27], 1.6 min; in data set [28], 4.8 min; in [29] it was 11.2 min; in data set [30] it was 72.2 min. Also, the “Ratio LD50/ED50” value in data set [12] stood at 4.2.

Turning to `C[C@@H](c1cccc([C@H](C)C2CC2)c1O)C1CC1`, the Time in data set [13] was 318.43 s; in data set [15], below 10 s; in data set [18], 61.67 s. The t1/2 in data set [14] is on record as 31 min. For the same compound, the inhibition was 64% in data set [16], “Dose-dependent effect” in data set [19] and 96% in data set [21]. This compound also yielded a Cmax in data set [17] of 713 ng/mL. In addition, the AUCt in [20] came out at 170 ng·h/mL. In addition, the Activity in [22] came out at 5 mg/kg. Further, the Vd in data set [23] was 1.92 L/kg. Further, in [24], the clearance is 95 mL/min/kg.

`CC[C@@H](C)c1cccc([C@H](C)C2CC2)c1O` gave an LD50 at 10 s in data set [31] of 14.3 mg/kg. In addition, the Time is listed as 471.88 s in data set [13], below 10 s in [15] and 391.29 s in [18]. Moreover, the ED50 in data set [32] stood at 2 mg/kg. In data set [14], the t1/2 stood at 22 min. The results for the inhibition in data set [16], in data set [19] and in data set [21] were 23%, “Dose-dependent effect” and 87%, respectively. Also, in [17], the Cmax was determined as 575 ng/mL. The compound further had an AUCt in data set [20] of 78.1 ng·h/mL. The Activity in data set [22] was 7.5 mg/kg. For the same compound, the Vd in data set [23] worked out at 3.23 L/kg. Moreover, the clearance in data set [24] was determined as 208 mL/min/kg.

`C[C@@H](c1cccc([C@H](C)C2CC2)c1OCOP(=O)([O-])[O-])C1CC1.[Na+].[Na+]`: the median effective dose (ED50) is 11.7 mg/kg in [1] and 7.34 mg/kg in data set [7]. The selectivity ratio in [2] amounted to 5.51. The 50% lethal dose (LD50) in data set [3] stood at 42.5 mg/kg; in data set [5] it was 40.4 mg/kg. The Time is listed as 3 min in data set [33]; 0.9 min in [34]; 9.6 min in data set [35]; 65.8 min in data set [36]; 3.3 min in [37]; 70.2 min in data set [38]. Moreover, in data set [12], the “Ratio LD50/ED50” value was determined as 3.6.
